Test results: ChEMBL document CHEMBL1147429, “Synthesis and evaluation of novel bacterial rRNA-binding benzimidazoles by mass spectrometry” (Bioorg Med Chem Lett, 2004)

Tested on: Ribosomal RNA A-site
Assay: Binding affinity for the 16S ribosomal RNA A-site of Escherichia coli
Format: nucleic-acid assay

With `Clc1ccc2[nH]c(C3CCNCC3)nc2c1` the Kd was 508 µM.
Work on `N[C@H]1CC[C@@H](c2nc3cc([N+](=O)[O-])ccc3[nH]2)C1` yielded a Kd of 221 µM.
For `Clc1cc2nc(C3CCNCC3)n(Cc3ccccc3Br)c2cc1Cl`, the Kd was 593 µM.
In the case of `Nc1ccc2[nH]c(C3CCNCC3)nc2c1`, the Kd is reported as 500 µM.
With `Cc1ccc(OC(=O)n2c(C3CCNCC3)nc3cc(Cl)c(Cl)cc32)cc1` the Kd was > 1000 µM.
`Cc1ccc(S(=O)(=O)n2c(C3CCNCC3)nc3cc(Cl)c(Cl)cc32)cc1` was tested, and the Kd was > 1000 µM.
`COc1ccc2[nH]c(C3CCNCC3)nc2c1` was tested, and the Kd was 588 µM.
With `c1c[nH]c2nc(C3CCNCC3)nc-2c1` the Kd was 535 µM.
Work on `Cn1c(C2CCNCC2)nc2cc(Cl)c(Cl)cc21` yielded a Kd of 239 µM.
`Cc1cc2[nH]c(C3CCNCC3)nc2cc1Cl` gave a Kd of 380 µM.
`Clc1cc2nc(C3CCNCC3)n(Cc3cccc(I)c3)c2cc1Cl` showed a Kd of 405 µM.
For `O=[N+]([O-])c1ccc2[nH]c(C3CCCCC3)nc2c1`, the Kd was > 1000 µM.
`O=C(O)Cn1c(C2CCNCC2)nc2cc(Cl)c(Cl)cc21` was tested, and the Kd was > 1000 µM.
In the case of `CC(=O)N1CCC(c2nc3cc([N+](=O)[O-])ccc3[nH]2)CC1`, the Kd is reported as > 1000 µM.
For `FC(F)(F)c1ccc(Cn2c(C3CCNCC3)nc3cc(Cl)c(Cl)cc32)cc1`, the Kd was 214 µM.
With `Clc1cc2nc(C3CCNCC3)n(-c3ncccn3)c2cc1Cl` the Kd was 672 µM.
For `c1ccc2sc(C3CCNCC3)nc2c1`, the Kd was > 1000 µM.
`N[C@H]1CC[C@@H](c2nc3cc([N+](=O)[O-])ccc3[nH]2)CC1` gave a Kd of 123 µM.
With `O=[N+]([O-])c1cc(C(F)(F)F)ccc1-n1c(C2CCNCC2)nc2cc(Cl)c(Cl)cc21` the Kd was 122 µM.
In the case of `Nc1cccc(-c2nc3cc([N+](=O)[O-])ccc3[nH]2)c1`, the Kd is reported as > 1000 µM.
With `O=[N+]([O-])c1ccc(Cn2c(C3CCNCC3)nc3cc(Cl)c(Cl)cc32)cc1` the Kd was 241 µM.
Work on `Clc1cc2nc(C3CCNCC3)[nH]c2cc1Cl` yielded a Kd of 174 µM.
Work on `CCCCn1c(C2CCNCC2)nc2cc(Cl)c(Cl)cc21` yielded a Kd of 278 µM.
In the case of `Nc1ccc(-c2nc3cc([N+](=O)[O-])ccc3[nH]2)cc1`, the Kd is reported as > 1000 µM.
In the case of `c1ccc2[nH]c(C3CCNCC3)nc2c1`, the Kd is reported as 108 µM.
`Fc1c(F)c(C(F)(F)F)c(F)c(F)c1Cn1c(C2CCNCC2)nc2cc(Cl)c(Cl)cc21` showed a Kd of 117 µM.
`Fc1c(F)c(F)c(Cn2c(C3CCNCC3)nc3cc(Cl)c(Cl)cc32)c(F)c1F` was tested, and the Kd was 237 µM.
`O=[N+]([O-])c1ccc2[nH]c(-c3ccncc3)nc2c1` was tested, and the Kd was > 1000 µM.
`COC(=O)c1ccc(Cn2c(C3CCNCC3)nc3cc(Cl)c(Cl)cc32)cc1` was tested, and the Kd was 224 µM.
Molecule `NC1CCCC(c2nc3cc([N+](=O)[O-])ccc3[nH]2)C1` (stereo not drawn) has a Kd of 105 µM.
Work on `Brc1ccc2[nH]c(C3CCNCC3)nc2c1` yielded a Kd of 361 µM.
For `c1cc2nc(C3CCNCC3)nc-2c[nH]1`, the Kd was 110 µM.
In the case of `Clc1cc2nc(C3CCNCC3)n(Cc3cccnc3)c2cc1Cl`, the Kd is reported as 67 µM.
`Clc1cc2nc(C3CCNCC3)n(Cc3ccc(I)cc3)c2cc1Cl` gave a Kd of 198 µM.
For `c1nc2nc(C3CCNCC3)nc-2c[nH]1`, the Kd was 914 µM.
`O=[N+]([O-])c1ccc2[nH]c(C3CCNCC3)nc2c1` gave a Kd of 308 µM.
`Clc1ccc2scc(Cn3c(C4CCNCC4)nc4cc(Cl)c(Cl)cc43)c2c1` was tested, and the Kd was > 1000 µM.
With `Clc1cc2nc(C3CCNCC3)n(Cc3ccncc3)c2cc1Cl` the Kd was 60 µM.
With `CN1CCC(c2nc3cc([N+](=O)[O-])ccc3[nH]2)CC1` the Kd was > 1000 µM.
With `FC(F)(F)c1ccc(Cn2c(C3CCNCC3)nc3cc(Cl)c(Cl)cc32)c(C(F)(F)F)c1` the Kd was 159 µM.
In the case of `CC(C)(C)c1ccc(Cn2c(C3CCNCC3)nc3cc(Cl)c(Cl)cc32)cc1`, the Kd is reported as 575 µM.
With `O=[N+]([O-])c1ccc2[nH]c(-c3cccnc3)nc2c1` the Kd was > 1000 µM.
Molecule `FC(F)(F)c1ccc2[nH]c(C3CCNCC3)nc2c1` has a Kd of 281 µM.
With `O=[N+]([O-])c1ccc(-n2c(C3CCNCC3)nc3cc(Cl)c(Cl)cc32)c([N+](=O)[O-])c1` the Kd was 243 µM.
With `Cc1ccc2[nH]c(C3CCNCC3)nc2c1` the Kd was 439 µM.
In the case of `COC(=O)Cn1c(C2CCNCC2)nc2cc(Cl)c(Cl)cc21`, the Kd is reported as 301 µM.
Work on `N[C@H]1C(O)O[C@H](CO)C(O)[C@@H]1O` (single isomer, unassigned) [GLUCOSAMINE] yielded a Kd of ~1000 µM.
`Clc1cc2nc(C3CCNCC3)n(Cc3ccc(Br)cc3)c2cc1Cl` showed a Kd of 434 µM.
